According to US12473291B2 (priority 2019, dated 2025):

Experiments:
SD rats = assay: animal or person; assay type: in vivo; details: for ED50: Rattus norvegicus, SD rats (male, 220-300 g), injection via the tail vein, disappearance of righting reflex, read-out: ED50; for 2ED50 duration / 2ED50 recovery time / Quality of recovery: SD rats; for 2ED50 duration / 2ED50 recovery time: single tail vein injection at 2×ED50; for 2ED50 duration: time from disappearance to recovery of righting reflex; for 2ED50 recovery time: time from recovery of righting reflex to free crawling; for Quality of recovery: tail vein injection; for duration and recovery time compared with remimazolam / effective dose compared with remimazolam: rats, tail vein, in words
KM mice = assay: animal or person; assay type: in vivo; details: for 2ED50 duration / 2ED50 recovery time / Quality of recovery: KM mice; for 2ED50 duration / 2ED50 recovery time: single tail vein injection at 2×ED50; for 2ED50 duration: time from disappearance to recovery of righting reflex; for 2ED50 recovery time: time from recovery of righting reflex to free crawling; for Quality of recovery: tail vein injection; for ED50: Mus musculus, KM mice (male, 18-22 g), injection via the tail vein, disappearance of righting reflex, read-out: ED50; for duration and recovery time compared with remimazolam / effective dose compared with remimazolam: mice, tail vein, in words

SMILES | ED50 (SD rats) [mg/kg] | 2ED50 duration (SD rats) [min] | 2ED50 recovery time (SD rats) [min] | Quality of recovery (SD rats) | duration and recovery time compared with remimazolam (SD rats) | effective dose compared with remimazolam (SD rats) | 2ED50 duration (KM mice) [min] | 2ED50 recovery time (KM mice) [min] | Quality of recovery (KM mice) | ED50 (KM mice) [mg/kg] | duration and recovery time compared with remimazolam (KM mice) | effective dose compared with remimazolam (KM mice)
COC(=O)C1(OC(=O)CC[C@@H]2N=C(c3ccccn3)c3cc(Cl)c(Cl)c(Cl)c3-n3c(C)cnc32)CC1 [Example 46] | 6.3 | 3.17 | 2.28 | + (“+” means <1 min) | significantly shorter | significantly lower | 1.21 | 1.08 | +++ (“+++” means 3-5 min) | 32 | – | –
CCCOC(=O)OCOC(=O)CC[C@@H]1N=C(c2ccccn2)c2cc(Br)ccc2-n2c(C)cnc21 [Example 47] | 6.2 | 4.07 | 2.38 | ++ (“++” means 1-3 min) | – | – | 3.90 | 2.42 | ++++ (“++++” means 5-10 min) | 27 | – | –
Cc1cnc2n1-c1ccc(Br)cc1C(c1ccccn1)=N[C@H]2CCC(=O)OCOC(=O)OC(C)C [Example 48] | 5.3 | 4.16 | 2.42 | +++ (“+++” means 3-5 min) | – | – | 8.56 | 2.48 | ++++ (“++++” means 5-10 min) | 27 | – | –
Cc1cnc2n1-c1ccc(Br)cc1C(c1ccccn1)=N[C@H]2CCC(=O)OCOC(=O)OC(C)(C)C [Example 49] | 5 | 1.24 | 2.01 | + (“+” means <1 min) | significantly shorter | significantly lower | 2.65 | 1.22 | – | 20 | significantly shorter | significantly lower
CCC(CC)OC(=O)OCOC(=O)CC[C@@H]1N=C(c2ccccn2)c2cc(Br)ccc2-n2c(C)cnc21 [Example 50] | 6.3 | 3.56 | 2.41 | ++ (“++” means 1-3 min) | – | – | 7.84 | 1.47 | ++ (“++” means 1-3 min) | 24.6 | – | –
Cc1cnc2n1-c1ccc(Br)cc1C(c1ccccn1)=N[C@H]2CCC(=O)OCOC(=O)OC(C)C(C)C (some centres unmarked) [Example 51] | 6.5 | 3.09 | 2.32 | +++ (“+++” means 3-5 min) | – | – | >10 | 2.39 | +++ (“+++” means 3-5 min) | 27.8 | – | –
Cc1cnc2n1-c1ccc(Br)cc1C(c1ccccn1)=N[C@H]2CCC(=O)OCOC(=O)OC(C(C)C)C(C)C [Example 52] | 6.8 | 4.03 | 2.41 | ++ (“++” means 1-3 min) | – | – | >10 | 1.49 | ++++ (“++++” means 5-10 min) | 32 | – | –
COC(=O)OC(C)OC(=O)CC[C@@H]1N=C(c2ccccn2)c2cc(Br)ccc2-n2c(C)cnc21 (some centres unmarked) [Example 53] | 6 | 3.18 | 2.47 | ++ (“++” means 1-3 min) | significantly shorter | significantly lower | 3.61 | 2.41 | – | 25.7 | significantly shorter | significantly lower
CCOC(=O)OC(C)OC(=O)CC[C@@H]1N=C(c2ccccn2)c2cc(Br)ccc2-n2c(C)cnc21 (some centres unmarked) [Example 54] | 6.4 | 3.22 | 2.52 | +++ (“+++” means 3-5 min) | significantly shorter | significantly lower | 8.52 | 1.56 | – | 25 | significantly shorter | significantly lower
Cc1cnc2n1-c1ccc(Br)cc1C(c1ccccn1)=N[C@H]2CCC(=O)OC(C)OC(=O)OC(C)C (some centres unmarked) [Example 55] | 5.2 | 3.28 | 2.51 | + (“+” means <1 min) | significantly shorter | significantly lower | 4.65 | 1.29 | – | 28.1 | significantly shorter | significantly lower
COC(=O)COC(=O)CC[C@@H]1N=C(c2ccccn2)c2cc(Br)ccc2-n2c(C)cnc21 [Example 56, 2-Methoxy-2-oxoethyl-3-((4S)-8-bromo-1-methyl-6-(pyridine-2-yl)-4H-benzo[f]imidazo[1,2-a][1,4]diaza-4-ylpropionate] | 6.8 | 1.05 | 1.12 | ++ (“++” means 1-3 min) | – | – | 4.08 | 1.20 | ++ (“++” means 1-3 min) | 27.2 | – | –
CCOC(=O)COC(=O)CC[C@@H]1N=C(c2ccccn2)c2cc(Br)ccc2-n2c(C)cnc21 [Example 57, 2-Ethoxy-2-oxoethyl-3-((4S)-8-bromo-1-methyl-6-(pyridine-2-yl)-4H-benzo [f]imidazo[1,2-a][1,4]diaza-4-ylpropionate] | 4.7 | 5.07 | 2.41 | + (“+” means <1 min) | significantly shorter | significantly lower | 3.90 | 2.31 | – | 25 | significantly shorter | significantly lower
COC(=O)C1(OC(=O)CC[C@@H]2N=C(c3ccccn3)c3cc(Br)ccc3-n3c(C)cnc32)CC1 [Example 58, Methyl 1-((3-((4S)-8-bromo-1-methyl-6-(pyridine-2-yl)-4H-benzo[f]imidazo [1,2-a][1,4]diaza-4-yl)propionyl)oxy) cyclopropane-1-carboxylate] | 5.6 | 5.09 | 3.01 | +++ (“+++” means 3-5 min) | – | – | 3.18 | 1.41 | +++ (“+++” means 3-5 min) | 28 | – | –
CCOC(=O)C1(OC(=O)CC[C@@H]2N=C(c3ccccn3)c3cc(Br)ccc3-n3c(C)cnc32)CC1 [Example 59, Ethyl 1-((3-((4S)-8-bromo-1-methyl-6-(pyridine-2-yl)-4H-benzo[f]imidazo [1,2-a][1,4]diaza-4-yl)propionyl)oxy) cyclopropane-1-carboxylate] | 1.76 | 5.02 | 2.51 | ++ (“++” means 1-3 min) | significantly shorter | significantly lower | 2.77 | 1.38 | – | 13.8 | significantly shorter | significantly lower
COC(=O)C(C)OC(=O)CC[C@@H]1N=C(c2ccccn2)c2cc(Br)ccc2-n2c(C)cnc21 (some centres unmarked) [Example 60] | 3.5 | 2.12 | 2.14 | +++ (“+++” means 3-5 min) | – | – | 2.46 | 1.47 | ++ (“++” means 1-3 min) | 22.5 | – | –
CCOC(=O)C(C)OC(=O)CC[C@@H]1N=C(c2ccccn2)c2cc(Br)ccc2-n2c(C)cnc21 (some centres unmarked) [Example 61] | 2.7 | 1.21 | 2.01 | ++ (“++” means 1-3 min) | – | – | 3.01 | 1.58 | +++ (“+++” means 3-5 min) | 29.9 | – | –
COC(=O)C(C)(C)OC(=O)CC[C@@H]1N=C(c2ccccn2)c2cc(Br)ccc2-n2c(C)cnc21 [Example 62, Methyl 2-((3-((4S)-8-bromo-1-methyl-6-(pyridine-2-yl)-4H-benzo[f]imidazo [1,2-a][1,4]diaza-4-yl)propionyl)oxy)-2-methylpropionate] | 1.3 | 1.08 | 2.14 | +++ (“+++” means 3-5 min) | – | – | 3.23 | 1.27 | +++ (“+++” means 3-5 min) | 13.5 | – | –
CCc1c(Br)cc2c(c1Cl)-n1c(C)cnc1[C@H](CCC(=O)OC(C)(CC)SC(=O)OC)N=C2c1ccccn1 (some centres unmarked) [Example 63] | 3.5 | 2.03 | 2.09 | ++ (“++” means 1-3 min) | – | – | 3.14 | 2.03 | ++ (“++” means 1-3 min) | 29.8 | – | –
